The test system of this experiment is MV-4-11 cells. Briefly: Gene expression microarray analysis (Affymetrix PrimeView) and GSEA. In kind it is cell-based, human. The settings on record: MV-4-11 cells, 48 hours. More on the design: RFU PODN (11730768_x_at) / Fold change /veh PODN (11730768_x_at) / RFU LINC00158 (11744669_a_at) / Fold change /veh LINC00158 (11744669_a_at) / RFU DUSP10 (11751237_a_at) / Fold change /veh DUSP10 (11751237_a_at) / RFU ID3 (11757404_x_at) / Fold change /veh ID3 (11757404_x_at) / RFU PLEKHG5 (11737974_s_at) / Fold change /veh PLEKHG5 (11737974_s_at) / RFU LRRC4B (11730491_at) / Fold change /veh LRRC4B (11730491_at) / RFU GIMAP4 (11747438_a_at) / Fold change /veh GIMAP4 (11747438_a_at) / RFU KRT8 (11758183_x_at) / Fold change /veh KRT8 (11758183_x_at) / RFU CNN1 (11734310_a_at) / Fold change /veh CNN1 (11734310_a_at) / RFU VPS37D (11726825_at) / Fold change /veh VPS37D (11726825_at) / RFU C10orf10 (11716522_x_at) / Fold change /veh C10orf10 (11716522_x_at) / RFU KIR2DL2 /// KIR2DL4 /// KIR2DL5A /// KIR2DL5B /// KIR2DS1 /// KIR2DS2 /// KIR2DS3 /// KIR2DS4 /// KIR3DL3 /// KIR3DL3 /// KIR3DS1 (11738374_at) / Fold change /veh KIR2DL2 /// KIR2DL4 /// KIR2DL5A /// KIR2DL5B /// KIR2DS1 /// KIR2DS2 /// KIR2DS3 /// KIR2DS4 /// KIR3DL3 /// KIR3DL3 /// KIR3DS1 (11738374_at) / RFU C1QL1 (11718748_at) / Fold change /veh C1QL1 (11718748_at) / RFU TMPRSS4 (11747572_a_at) / Fold change /veh TMPRSS4 (11747572_a_at) / RFU HAMP (11756126_x_at) / Fold change /veh HAMP (11756126_x_at) / RFU RNFT2 (11725882_a_at) / Fold change /veh RNFT2 (11725882_a_at) / RFU NR4A2 (11747474_a_at) / Fold change /veh NR4A2 (11747474_a_at) / RFU ABCC12 (11746883_a_at) / Fold change /veh ABCC12 (11746883_a_at) / RFU TMEM136 (11760407_x_at) / Fold change /veh TMEM136 (11760407_x_at) / RFU CLDN22 /// WWC2 (11732394_at) / Fold change /veh CLDN22 /// WWC2 (11732394_at) / RFU HLA-DPB1 (11760878_x_at) / Fold change /veh HLA-DPB1 (11760878_x_at) / RFU SPINT1 (11716480_a_at) / Fold change /veh SPINT1 (11716480_a_at) / RFU GAP43 (11754022_s_at) / Fold change /veh GAP43 (11754022_s_at) / RFU A4GNT (11735810_at) / Fold change /veh A4GNT (11735810_at) / RFU PRB3 (11715151_x_at) / Fold change /veh PRB3 (11715151_x_at) / RFU TUBB4B (11761932_at) / Fold change /veh TUBB4B (11761932_at) / RFU CAPN14 (11732068_a_at) / Fold change /veh CAPN14 (11732068_a_at) / RFU TMCC2 (11721928_a_at) / Fold change /veh TMCC2 (11721928_a_at) / RFU IRGQ (11745062_a_at) / Fold change /veh IRGQ (11745062_a_at) / RFU FAM174B (11720279_a_at) / Fold change /veh FAM174B (11720279_a_at) / RFU TMPRSS4 (11748680_a_at) / Fold change /veh TMPRSS4 (11748680_a_at) / RFU FAM212B (11763350_a_at) / Fold change /veh FAM212B (11763350_a_at) / RFU PLEKHG5 (11743358_a_at) / Fold change /veh PLEKHG5 (11743358_a_at) / RFU ZSCAN30 (11745921_a_at) / Fold change /veh ZSCAN30 (11745921_a_at) / RFU CMKLR1 (11741424_a_at) / Fold change /veh CMKLR1 (11741424_a_at) / RFU LOC101060620 /// MAPK8IP1 (11723275_at) / Fold change /veh LOC101060620 /// MAPK8IP1 (11723275_at) / RFU SPTSSB (11747773_x_at) / Fold change /veh SPTSSB (11747773_x_at) / RFU PRSS12 (11739890_at) / Fold change /veh PRSS12 (11739890_at) / RFU BIN1 (11741810_x_at) / Fold change /veh BIN1 (11741810_x_at) / RFU WNT11 (11732464_a_at) / Fold change /veh WNT11 (11732464_a_at) / RFU C10orf10 (11716521_a_at) / Fold change /veh C10orf10 (11716521_a_at) / RFU C5orf56 (11738089_at) / Fold change /veh C5orf56 (11738089_at) / RFU CYB561 (11721691_x_at) / Fold change /veh CYB561 (11721691_x_at) / RFU ANKRD19P (11752326_a_at) / Fold change /veh ANKRD19P (11752326_a_at) / RFU OR2T12 /// OR2T33 /// OR2T8 (11738714_s_at) / Fold change /veh OR2T12 /// OR2T33 /// OR2T8 (11738714_s_at) / RFU VCAN (11748164_a_at) / Fold change /veh VCAN (11748164_a_at) / RFU JSRP1 (11732532_at) / Fold change /veh JSRP1 (11732532_at) / RFU KRTAP10-11 (11738290_x_at) / Fold change /veh KRTAP10-11 (11738290_x_at) / RFU MYO3A (11730013_a_at) / Fold change /veh MYO3A (11730013_a_at) / RFU EBF3 (11725865_a_at) / Fold change /veh EBF3 (11725865_a_at) / RFU CAMK2N1 (11719241_x_at) / Fold change /veh CAMK2N1 (11719241_x_at) / RFU C5orf56 (11738088_a_at) / Fold change /veh C5orf56 (11738088_a_at) / RFU OLFML3 (11715873_a_at) / Fold change /veh OLFML3 (11715873_a_at) / RFU LOC100653217 /// NTM (11731650_a_at) / Fold change /veh LOC100653217 /// NTM (11731650_a_at) / RFU MAPK11 (11762145_a_at) / Fold change /veh MAPK11 (11762145_a_at) / RFU FIZ1 (11724087_x_at) / Fold change /veh FIZ1 (11724087_x_at) / RFU OASL (11726364_x_at) / Fold change /veh OASL (11726364_x_at) / RFU SOX15 (11748057_x_at) / Fold change /veh SOX15 (11748057_x_at) / RFU CD79A (11719716_a_at) / Fold change /veh CD79A (11719716_a_at) / RFU HIST1H1D (11736915_at) / Fold change /veh HIST1H1D (11736915_at) / RFU CASKIN2 (11723855_a_at) / Fold change /veh CASKIN2 (11723855_a_at) / RFU LOC730098 (11760151_x_at) / Fold change /veh LOC730098 (11760151_x_at) / RFU OR4N2 (11742367_at) / Fold change /veh OR4N2 (11742367_at) / RFU PRRT2 (11749266_a_at) / Fold change /veh PRRT2 (11749266_a_at) / RFU SNX32 (11753110_a_at) / Fold change /veh SNX32 (11753110_a_at) / RFU CDHR5 (11726645_a_at) / Fold change /veh CDHR5 (11726645_a_at) / RFU RCAN1 (11760418_a_at) / Fold change /veh RCAN1 (11760418_a_at) / RFU FAM167A (11723789_a_at) / Fold change /veh FAM167A (11723789_a_at) / RFU FAM26E (11764081_at) / Fold change /veh FAM26E (11764081_at) / RFU ISYNA1 (11749810_s_at) / Fold change /veh ISYNA1 (11749810_s_at) / RFU ACY1 (11761880_at) / Fold change /veh ACY1 (11761880_at) / RFU 11764098_at / Fold change /veh 11764098_at / RFU SAMD14 (11745864_x_at) / Fold change /veh SAMD14 (11745864_x_at) / RFU NPB (11741838_a_at) / Fold change /veh NPB (11741838_a_at) / RFU TMPRSS6 (11731388_a_at) / Fold change /veh TMPRSS6 (11731388_a_at) / RFU KRTAP10-2 (11738614_at) / Fold change /veh KRTAP10-2 (11738614_at) / RFU ARHGAP8 /// PRR5-ARHGAP8 (11727945_x_at) / Fold change /veh ARHGAP8 /// PRR5-ARHGAP8 (11727945_x_at) / RFU KRTAP5-7 /// NADSYN1 (11734609_at) / Fold change /veh KRTAP5-7 /// NADSYN1 (11734609_at) / RFU RASL12 (11751679_a_at) / Fold change /veh RASL12 (11751679_a_at) / RFU CDKN2B (11736163_a_at) / Fold change /veh CDKN2B (11736163_a_at) / RFU PRF1 (11729649_at) / Fold change /veh PRF1 (11729649_at) / RFU, ZNF638 /// ZNF638-IT1 / Fold change vs veh, ZNF638 /// ZNF638-IT1 / RFU, PANK3 / Fold change vs veh, PANK3 / RFU, SH3YL1 / Fold change vs veh, SH3YL1 / RFU, ZEB2 / Fold change vs veh, ZEB2 / RFU, NRIP1 / Fold change vs veh, NRIP1 / RFU, PTTG1IP / Fold change vs veh, PTTG1IP / RFU, CAPN2 / Fold change vs veh, CAPN2 / RFU, MED14 / Fold change vs veh, MED14 / RFU, SNORA58 / Fold change vs veh, SNORA58 / RFU, C1orf63 / Fold change vs veh, C1orf63 / RFU, LRRFIP1 / Fold change vs veh, LRRFIP1 / RFU, NDUFAF7 / Fold change vs veh, NDUFAF7 / RFU, SLC12A2 / Fold change vs veh, SLC12A2 / RFU, IBTK / Fold change vs veh, IBTK / RFU, ESF1 / Fold change vs veh, ESF1 / Fold change vs veh, TMEM50B / RFU, TAOK1 / Fold change vs veh, TAOK1 / RFU, ACBD3 / Fold change vs veh, ACBD3 / RFU, TMA16 / Fold change vs veh, TMA16 / RFU, RWDD3 / Fold change vs veh, RWDD3 / RFU, BCAT1 / Fold change vs veh, BCAT1 / RFU, EDEM3 / Fold change vs veh, EDEM3 / RFU, TMEM33 / Fold change vs veh, TMEM33 / RFU, WDR75 / Fold change vs veh, WDR75 / RFU, AHCTF1 / Fold change vs veh, AHCTF1 / RFU, TFRC / Fold change vs veh, TFRC / RFU, ZDHHC17 / Fold change vs veh, ZDHHC17 / RFU, NOM1 / Fold change vs veh, NOM1 / RFU, ARL8B / Fold change vs veh, ARL8B / RFU, ZBTB11 / Fold change vs veh, ZBTB11 / RFU, TAMM41 / Fold change vs veh, TAMM41 / RFU, KIAA1704 /// LOC100996395 / Fold change vs veh, KIAA1704 /// LOC100996395 / RFU, ING1 / Fold change vs veh, ING1 / RFU, TRMT61B / Fold change vs veh, TRMT61B / RFU, FUBP3 / Fold change vs veh, FUBP3 / RFU, TP53 / Fold change vs veh, TP53 / RFU, TNKS2 / Fold change vs veh, TNKS2 / RFU, ZFP14 / Fold change vs veh, ZFP14 / RFU, ACTR2 / Fold change vs veh, ACTR2 / RFU, PPP3R1 / Fold change vs veh, PPP3R1 / RFU, PIK3R1 / Fold change vs veh, PIK3R1 / RFU, HNRNPA1 / Fold change vs veh, HNRNPA1 / RFU, RNF170 / Fold change vs veh, RNF170 / RFU, ZNF28 / Fold change vs veh, ZNF28 / RFU, RNGTT / Fold change vs veh, RNGTT / RFU, OGT / Fold change vs veh, OGT / RFU, BRD1 / Fold change vs veh, BRD1 / RFU, MARS / Fold change vs veh, MARS / RFU, ZNF655 / Fold change vs veh, ZNF655 / RFU, FAHD1 / Fold change vs veh, FAHD1 / RFU, BDP1 / Fold change vs veh, BDP1 / RFU, LRRCC1 / Fold change vs veh, LRRCC1 / RFU, ARID1A / Fold change vs veh, ARID1A / RFU, ZNF146 / Fold change vs veh, ZNF146 / RFU, ZNF330 / Fold change vs veh, ZNF330 / RFU, GPN3 / Fold change vs veh, GPN3 / RFU, C9orf123 / Fold change vs veh, C9orf123 / RFU, N4BP2L2 / Fold change vs veh, N4BP2L2 / RFU, ARFIP1 / Fold change vs veh, ARFIP1 / RFU, FAM179B / Fold change vs veh, FAM179B / RFU, BCL10 / Fold change vs veh, BCL10 / RFU, UHRF1BP1L / Fold change vs veh, UHRF1BP1L / RFU, BET1 / Fold change vs veh, BET1 / RFU, CNOT2 / Fold change vs veh, CNOT2 / RFU, ZNF268 / Fold change vs veh, ZNF268 / Fold change vs veh, ZNF507 / RFU, DGCR2 / Fold change vs veh, DGCR2 / RFU, WDSUB1 / Fold change vs veh, WDSUB1 / Fold change vs veh, HSP90B1 /// MIR3652 / RFU, ADSS / Fold change vs veh, ADSS / RFU, GK / Fold change vs veh, GK / RFU, ZNF148 / Fold change vs veh, ZNF148 / RFU, TAF9 / Fold change vs veh, TAF9 / RFU, SLC1A5 / Fold change vs veh, SLC1A5 / RFU, SLMO2 / Fold change vs veh, SLMO2 / RFU, ABCC4 / Fold change vs veh, ABCC4 / RFU, LOC101060439 /// RAP1B / Fold change vs veh, LOC101060439 /// RAP1B / RFU, RFX7 / Fold change vs veh, RFX7 / RFU, GTPBP10 / Fold change vs veh, GTPBP10 / RFU, CNEP1R1 / Fold change vs veh, CNEP1R1 / RFU, BIVM-ERCC5 /// ERCC5 / Fold change vs veh, BIVM-ERCC5 /// ERCC5 / RFU, ILF3 / Fold change vs veh, ILF3 / RFU 11762660_at / Fold change /veh 11762660_at / RFU VCAN (11757783_s_at) / Fold change /veh VCAN (11757783_s_at) / RFU DDX43 (11728927_at) / Fold change /veh DDX43 (11728927_at) / RFU KRT8 (11758188_x_at) / Fold change /veh KRT8 (11758188_x_at) / RFU NKD1 (11759106_at) / Fold change /veh NKD1 (11759106_at) / RFU SRD5A1 (11742802_a_at) / Fold change /veh SRD5A1 (11742802_a_at) / RFU TPSAB1 /// TPSB2 (11721975_s_at) / Fold change /veh TPSAB1 /// TPSB2 (11721975_s_at) / RFU GSTM3 (11746129_a_at) / Fold change /veh GSTM3 (11746129_a_at) / RFU IL23R (11737362_x_at) / Fold change /veh IL23R (11737362_x_at) / RFU TMEM51 (11727254_a_at) / Fold change /veh TMEM51 (11727254_a_at) / RFU PIWIL2 (11732686_x_at) / Fold change /veh PIWIL2 (11732686_x_at) / RFU ORM1 (11744905_x_at) / Fold change /veh ORM1 (11744905_x_at) / RFU CCDC152 (11743942_at) / Fold change /veh CCDC152 (11743942_at) / RFU ECM1 (11717891_a_at) / Fold change /veh ECM1 (11717891_a_at) / RFU IL23R (11748794_a_at) / Fold change /veh IL23R (11748794_a_at) / RFU TNFAIP8L3 (11732012_x_at) / Fold change /veh TNFAIP8L3 (11732012_x_at) / RFU MBOAT4 (11741988_at) / Fold change /veh MBOAT4 (11741988_at) / RFU 11764193_at / Fold change /veh 11764193_at / RFU TMEM53 (11763286_at) / Fold change /veh TMEM53 (11763286_at) / RFU MAGEB2 (11727129_at) / Fold change /veh MAGEB2 (11727129_at) / RFU TMEM200A (11744735_a_at) / Fold change /veh TMEM200A (11744735_a_at) / RFU CCDC152 (11751479_a_at) / Fold change /veh CCDC152 (11751479_a_at) / RFU FAM211A (11726209_a_at) / Fold change /veh FAM211A (11726209_a_at) / RFU RGS16 (11746705_a_at) / Fold change /veh RGS16 (11746705_a_at) / RFU VCAN (11755009_s_at) / Fold change /veh VCAN (11755009_s_at) / RFU RHOB (11743442_s_at) / Fold change /veh RHOB (11743442_s_at) / RFU RGS16 (11720943_a_at) / Fold change /veh RGS16 (11720943_a_at) / RFU RGS16 (11720944_at) / Fold change /veh RGS16 (11720944_at) / RFU, VPS4B / Fold change vs veh, VPS4B / RFU, CREB1 / Fold change vs veh, CREB1 / RFU, DNAJC13 / Fold change vs veh, DNAJC13 / RFU, GNAQ / Fold change vs veh, GNAQ / RFU, CDK5R1 / Fold change vs veh, CDK5R1 / RFU, ZRANB3 / Fold change vs veh, ZRANB3 / RFU, CUL4A / Fold change vs veh, CUL4A / RFU, CCNY / Fold change vs veh, CCNY / RFU, UFL1 / Fold change vs veh, UFL1 / RFU, COG3 / Fold change vs veh, COG3 / RFU, DIAPH2 / Fold change vs veh, DIAPH2 / RFU, SKA2 / Fold change vs veh, SKA2 / RFU, AFF3 / Fold change vs veh, AFF3 / RFU, LMF1 / Fold change vs veh, LMF1 / RFU, IPO11 / Fold change vs veh, IPO11 / RFU, DFFB / Fold change vs veh, DFFB / RFU, FOXP1 / Fold change vs veh, FOXP1 / RFU, CARD8 / Fold change vs veh, CARD8 / RFU, STRN3 / Fold change vs veh, STRN3 / RFU, ADK / Fold change vs veh, ADK / RFU, RASSF2 / Fold change vs veh, RASSF2 / RFU, WIPF1 / Fold change vs veh, WIPF1 / RFU, LARP1B / Fold change vs veh, LARP1B / RFU, RASA1 / Fold change vs veh, RASA1 / RFU, RB1 / Fold change vs veh, RB1 / RFU, PPFIA1 / Fold change vs veh, PPFIA1 / RFU, MAT2A / Fold change vs veh, MAT2A / RFU, CCT5 / Fold change vs veh, CCT5 / RFU, WDR92 / Fold change vs veh, WDR92 / RFU, CUX1 / Fold change vs veh, CUX1 / RFU, TTC7A / Fold change vs veh, TTC7A / RFU, TMEM135 / Fold change vs veh, TMEM135 / RFU, DEPTOR / Fold change vs veh, DEPTOR / RFU, CPM / Fold change vs veh, CPM / RFU, DNAJB6 / Fold change vs veh, DNAJB6 / RFU, CACNA2D3 / Fold change vs veh, CACNA2D3 / RFU, DTX4 / Fold change vs veh, DTX4 / RFU, TFCP2 / Fold change vs veh, TFCP2 / RFU, GMCL1 /// GMCL1P1 / Fold change vs veh, GMCL1 /// GMCL1P1 / RFU, AEBP2 / Fold change vs veh, AEBP2 / RFU, SNHG1 /// SNORD22 /// SNORD25 /// SNORD26 /// SNORD27 /// SNORD28 /// SNORD29 /// SNORD31 / Fold change vs veh, SNHG1 /// SNORD22 /// SNORD25 /// SNORD26 /// SNORD27 /// SNORD28 /// SNORD29 /// SNORD31 / Fold change (Aza/veh), C12orf56 (ProbeSet 11735607_a_at) / Fold change (ACY-1035/veh), C12orf56 (ProbeSet 11735607_a_at) / Fold change (Aza/veh), FGFR1OP (ProbeSet 11751329_s_at) / Fold change (ACY-1035/veh), FGFR1OP (ProbeSet 11751329_s_at) / Fold change (Aza/veh), VPS36 (ProbeSet 11739960_a_at) / Fold change (ACY-1035/veh), VPS36 (ProbeSet 11739960_a_at) / RFU SYPL1 (11715823_x_at) / Fold change /veh SYPL1 (11715823_x_at) / RFU IGFBP7 (11715501_s_at) / Fold change /veh IGFBP7 (11715501_s_at) / RFU REEP3 (11722064_at) / Fold change /veh REEP3 (11722064_at) / RFU IGLL1 (11728026_x_at) / Fold change /veh IGLL1 (11728026_x_at): dose or concentration left out as unconfirmed.

Each structure is given as a SMILES string.

`Nc1ncn([C@@H]2O[C@H](CO)[C@@H](O)[C@H]2O)c(=O)n1` [azacitidine]: the “RFU ECM1 (11717891_a_at)” value is 24.53 RFU.

The values are drawn from paper PMC5218480 (PLoS ONE, 2017).
